{
  "source": "patent US20070231382A1",
  "about": "“Pharmaceutical composition” (priority 2001, published 2007)",
  "key": {"[1]": {"assay": "Clinical efficacy of once a day oral dose (anti-inflammatory, analgesic)", "format": "in vivo, humans", "description": "Such an agent is particularly useful in the treatment of chronic indications, such as rheumatoid arthritis and osteoarthritis as well as Alzheimer's Disease and prophylaxis of colon cancer, where the drug needs to be taken every day for the duration of a subject's life, because compliance is much easier with once a day dosing.\nA single, 400 mg tablet that is easy to swallow facilitates compliance with a once-a-day, 400 mg dose treatment regimen."}, "[2]": {"assay": "Compressibility of the drug substance", "format": "physicochemical", "conditions": "drug substance and its pharmaceutically acceptable salts", "description": "WO 99/11605, published Mar. 11, 1999 discloses 5-alkyl-2-arylaminophenylacetic acids and derivatives thereof as potent, selective inhibitors of cyclooxygenase-2. […] This active agent, when administered once a day, in a single, immediate release tablet formulation in an amount of about 400 mg, where the active agent comprises about 65% by weight of the tablet, provides effective anti-inflammatory treatment over a 24 hour period, without the use of extended release pharmaceutical formulation excipients and technology, and in a tablet form which is of a size that is easy to swallow."}, "[3]": {"assay": "Plasma half life after oral administration", "format": "in vivo", "conditions": "human", "description": "The immediate release pharmaceutical compositions of the invention, and which are useful in the kits and methods of the invention are “immediate release” tablet dosage forms. The tablets of the invention have neither the pharmacokinetic nor physical characteristics of extended release pharmaceutical dosage forms. Thus, a tablet of the invention will disintegrate or dissolve rapidly, preferably within one hour of administration, and administration of a tablet of the invention will result in a rapid rise in the blood plasma concentration of 5-methyl-2-(2′-chloro-6′-fluoroanilino)phenylacetic acid."}},
  "data": [
    {"smiles": "Cc1ccc(Nc2c(F)cccc2Cl)c(CC(=O)O)c1", "note": "[5-methyl-2-(2′-chloro-6′-fluoroanilino)phenylacetic acid]", "values": [
      {"measurement": "Analgesic efficacy", "setting": "[1]; 400 mg", "result": "effective analgesic dose"},
      {"measurement": "Anti-inflammatory treatment, duration of action", "setting": "[1]; humans, single oral dose of about 400 mg per day, immediate-release tablet", "result": "effective, safe anti-inflammatory treatment over a 24 hour period"},
      {"measurement": "Compressibility", "setting": "[2]", "result": "poor compressibility"},
      {"measurement": "half-life", "setting": "[3]", "result": "3 to 6", "unit": "h"}
    ]}
  ]
}
